From a melting point compilation (Tetko et al.; mined from patent text by program, amines drawn as free bases though some values may be those of a salt)

Point of comparison: `Cn1c(=NC(=S)Nc2ccccc2)n(C)c2ccccc21`, melting point 245 °C. Against it:
- CCOCc1nc2c(N)nc3cc(-c4cncc(CO)c4)ccc3c2n1CC(C)(C)O — lower, 188 to 190 °C
- CC1(C)OCC(C(O)CNC(=O)CS(=O)(=O)Nc2ccc(F)c(C(F)(F)F)c2)O1 (configuration not stated) — lower, 144 to 146 °C
- COc1ccc(O)c(CC=Cc2ccccc2C#N)c1 — lower, 72 to 74 °C
- COC(=O)c1ccc(C=Cc2ccc([N+](=O)[O-])c(C#N)c2)cc1 — higher, 266 to 269 °C
- O=C(c1ccccc1)N1CCNc2ncc(-c3cccnc3)cc21 — lower, 219 to 220 °C
- COc1cccc(NC(SC)=C(C#N)S(=O)(=O)C(C)C)c1 — lower, 107 to 110 °C
- Cc1cc(CNC(=O)c2cc(N3CCN(Cc4ccc(F)cc4)C3=O)n[nH]2)n[nH]1 — higher, 254 to 255 °C
- CCOC(=O)CCCc1sc(N)nc1-c1ccc(Cl)cc1 — lower, 114 to 115 °C
- N#Cc1ccccc1OCCCN1CCC(NC(=O)Cc2ccccc2)CC1 — lower, 105 to 107 °C
- C=C(C)Cc1c(O)c(C)c(C)c2c1CC(C)(C)N2C=O — lower, 116 to 118 °C
- COc1ccc(C(=C(C)P(c2ccccc2)c2ccccc2)c2ccc(OC)cc2)cc1 — lower, 123 to 125 °C
- O=C(NCc1ccc2ccccc2c1)C1=C(C(=O)Nc2cc(OC3CCCC3)c(Cl)cc2F)CCCC1 — lower, 174 to 175 °C
- CCCS(=O)c1sc(C(N)=O)c2c1-c1c(cnn1C)CC2 (configuration not stated) — lower, 194 to 195 °C
- COC(=O)c1ccc2cc(C(=O)c3ccc4c(c3)C3(C)C5(C)CCC(C5)C3(C)O4)ccc2c1 (configuration not stated) — lower, 146 °C
- CC1(C)COC(=O)N1c1nc(-c2cccc([N+](=O)[O-])c2)cs1 — not separable, > 210 °C
- Cc1cc(Nc2cnc(C(=O)N(C)CCO)c(Nc3ccc(Cl)cc3)n2)n[nH]1 — lower, 191 to 192 °C
- CCCn1nc2c(N)nc3ccccc3c2c1CCNC(=O)c1ccc(F)cc1 — lower, 198 to 199 °C
- Nc1ncnc2nsnc12 — higher, 247 to 249 °C
- COc1ccc(OC2CCN(C)C2)c(C(N)=O)c1 (configuration not stated) — lower, 85 to 87 °C
- CNC(=S)C1(c2cncc(Br)c2)CCCCC1=O (configuration not stated) — lower, 201 to 203 °C
- C[C@]12CCC(=O)N[C@@H]1CCc1cc(Sc3cccc4cccnc34)ccc12 — higher, > 260 °C
- Cc1nnc(-n2cc(C(=O)N3CCCC3)c3c4cc(F)ccc4n(C)c3c2=O)s1 — higher, 299 to 301 °C
- Nc1ccsc1C(=O)NCC1CCN(C[C@H]2COc3ccc(Cl)cc3O2)CC1 — lower, 200 to 202 °C
- COC(=O)CNC(=O)c1cc(C(=O)OC)c(O)c2ncc(Cc3ccc(F)cc3)cc12 — lower, 209 to 210 °C
- CCOC(=O)c1cn2c(cc(OC(C)C)c3ccc(OC)cc32)n1 — lower, 117 to 118 °C
- O=C(O)c1cn(C2CC2)c2c(F)c(N3CCC(n4nncc4C(=O)O)C3)c(F)cc2c1=O (configuration not stated) — lower, 214 °C
- CC1(C)OCC(CBr)(CBr)CO1 — lower, 56 to 58 °C
- Nc1cc(=O)n(CCCO)c2nc(NC3CCCCC3)ncc12 — lower, 131 to 132 °C
- CCCn1c(=O)c2c(NC)n[nH]c2n(Cc2ccc(F)cc2)c1=O — higher, 262 to 265 °C
- ClCc1ccc2oc(-c3cccs3)nc2c1 — lower, 152 to 153 °C
- O=C(O)COc1cccc2c1CCc1sc(NC(c3ccccc3)c3ccccc3)nc1-2 — higher, 250 to 252 °C
- N#C/C(=C\c1ccc(O)c(O)c1)C(=O)NCCCCNC(=O)/C(C#N)=C/c1ccc(O)c(O)c1 — higher, 283 °C
- Cc1ccc(C[C@H](N)[C@H](O)c2ccc(F)cc2)cc1OC(F)(F)C(F)F (racemic) — lower, 112 to 113 °C
- COc1ccc2cc(C(=O)C(C)N3CCN(Cc4ccccc4)CC3)ccc2c1 (configuration not stated) — lower, 149 to 150 °C
- COc1ccc(N2CCN(Cc3cnc(N)nc3N)CC2)cc1 — lower, 239 to 241 °C
- O=C(O)CN1C(=O)C(=CC=Cc2ccccc2)SC1=S — not separable, > 217 °C
- Cc1nc(N)nc(N)c1-c1ccc(F)cc1Cl — lower, 238 °C
- CS(=O)(=O)c1ccc(-n2nc(C(=O)N3CCOCC3)cc2-c2ccc(-c3ccco3)cc2)cc1F — lower, 221 to 222 °C
- COc1ccccc1-n1c(=O)[nH]c2c(C(N)=O)nc(-c3ccccc3C(F)(F)F)nc21 — lower, 237 to 240 °C
- CCS(CCO)=NS(=O)(=O)c1ccccc1 (configuration not stated) — lower, 75 to 76.5 °C
- O=C(C=Cc1ccccc1-c1ccccc1)c1ccccc1 — lower, 190 °C
- O=S(=O)(Cc1cn(C23CC4CC(CC(C4)C2)C3)nn1)c1cc(Cl)ccc1Cl — lower, 198 to 199 °C
- COc1ccc(-c2[nH]nc3c2C(=O)c2c(NC(=O)NNC(=O)CCCc4ccccc4)cccc2-3)cc1 — higher, 269 °C
- Cc1nnc(N2C(=O)C(O)=C(C(=O)c3ccc(C(C)C)cc3)C2c2ccc(C(F)(F)F)cc2)s1 (configuration not stated) — higher, 257 °C
- Cc1cc(N2CCN(C(=O)N3CCN(S(=O)(=O)c4ccc(Br)cc4)CC3)CC2)ncn1 — lower, 215 to 216 °C
- CCCC1=NN(c2ccc(C#N)cc2)C(=O)C1=CNc1ccccc1CC — lower, 197 °C
- CC(C)Cc1ccccc1-n1c(=O)[nH]c2c(C(N)=O)nc(-c3cccc(O)c3)nc21 — higher, > 260 °C
- COc1ccc(Nc2ccc(F)cc2)cc1 — lower, 46 to 48 °C
- O=c1[nH]c2cc(Cl)c(Cl)cc2c(O)c1-c1ccccc1 — higher, 347 to 349 °C
- COc1ccc(-n2c(Br)ccc2-c2ccc(S(N)(=O)=O)cc2)cc1 — lower, 121 to 123 °C
- COc1cccc2c1CCNCC2 — lower, 44.3 to 45 °C
- CC(C)(C)n1nc(-c2ccc(C(F)(F)F)cc2)c(C#N)c1N — lower, 155 to 156 °C
- CC1(C)c2cc(C#N)ccc2OC1O (configuration not stated) — lower, 103 to 122 °C
- N#Cc1ccc(CNC(=O)c2cccc(C#CCn3cncn3)c2)cc1 — lower, 183 to 186 °C
- Cc1cc(Cc2cc3cc(C(F)(F)F)ccc3n2S(=O)(=O)c2cccc(C(C)(C)C)c2)c(F)cc1C(=O)O — lower, 195 °C
- Cc1nc2n(c(=O)c1CCBr)CCCS2 — lower, 215 °C
- CCCc1ccc(S(=O)(=O)Nc2ccc(OC)nc2)cc1 — lower, 93 to 94 °C
- O=S(=O)(c1ccccc1)n1ccnc1 — lower, 82 to 83 °C
- O=C1C2C3C=CC(C4CC34)C2C(=O)N1c1ccc([N+](=O)[O-])cc1 (configuration not stated) — lower, 210 to 212 °C
- CN(C)c1ccc(C=CC(O)Cc2ccccc2)cc1 (configuration not stated) — lower, 158 to 162 °C
- CCN(CC)C(=O)Nc1ccc(S(=O)(=O)N2C(=O)C(N[C@@H](C)C(=O)OC)(c3ccccc3Cl)c3cc(Cl)ccc32)cc1 (some centres not stated) — lower, 204 °C
- Cn1nc(C(F)(F)F)c(C(=O)O)c1Sc1ccc(F)cc1 — lower, 190 to 194 °C
- COc1cc2nc(Cl)n3ncnc3c2cc1OC — higher, 258 to 260 °C
- CCCCCCc1ccc(-n2c(-c3ccc(C)cc3)ccc2-c2ccc(C)cc2)cc1 — lower, 147 to 148 °C
- CC(C)(C)c1ccc(C(O)(c2ccc(Cl)cc2)c2ncc[nH]2)cc1 (configuration not stated) — lower, 95 to 110 °C
- CNC(=S)C1(c2cccc(C)n2)CCCS1 (configuration not stated) — lower, 121 °C
- C=CC(O)C1=C(C)C(=NO)CCC1(C)C (configuration not stated) — lower, 138 to 142 °C
- O=c1ccoc2cc(OS(=O)(=O)C(F)(F)F)ccc12 — lower, 43 to 44 °C
- Cc1cc(OCc2ccccc2)ccc1CC#N — lower, 51 to 52 °C
- CCNC1CN(c2ccc(CCO[Si](c3ccccc3)(c3ccccc3)C(C)(C)C)cc2)S(=O)(=O)c2sc(S(N)(=O)=O)cc21 (configuration not stated) — lower, 66 °C
- COc1ccc(-c2cc(C)nc3ccccc23)cc1 — lower, 101 °C
